Results taken from PubChem BioAssay AID292 (DTP/NCI, 2004).
“And” between values parts separate entries of the source, which are not always exact repeats. Equal entries are not always repeated. Inconclusive results and toxic doses are left out. Rule for the calls: active = survival T/C of 150% or more; inactive = T/C below 125% in these data.

Test system: B6C3F1 mice, ip Sarcoma M5076, median survival T/C
Assay: NCI In Vivo Anticancer Drug Screen. Data for tumor model Sarcoma M5076 (intraperitoneal) in B6C3F1 mice
Settings: endpoint: median survival time, higher = longer survival
Procedure, shortened: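 Transplantable tumour in mice; compound-treated vs vehicle-treated groups. Read-out: survival. Value = treated/control ratio.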

[1] = dose: 75.0 mg/kg/injection, schedule: Q04DX004 (ip), vehicle: saline with Tween-80
[2] = dose: 150.0 mg/kg/injection, schedule: Q04DX004 (ip), vehicle: saline with Tween-80
[3] = dose: 25.0 mg/kg/injection, schedule: Q04DX004 (ip), vehicle: saline
[4] = dose: 25.0 mg/kg/injection, schedule: Q04DX004 (ip), vehicle: suspension in saline
[5] = dose: 50.0 mg/kg/injection, schedule: Q04DX004 (ip), vehicle: saline
[6] = dose: 50.0 mg/kg/injection, schedule: Q04DX004 (ip), vehicle: suspension in saline
[7] = dose: 100.0 mg/kg/injection, schedule: Q04DX004 (ip), vehicle: saline
[8] = dose: 200.0 mg/kg/injection, schedule: Q04DX004 (ip), vehicle: saline
[9] = dose: 50.0 mg/kg/injection, schedule: Q04DX004 (ip), vehicle: Klucel (hydroxypropylcellulose) (HPC)
[10] = dose: 25.0 mg/kg/injection, schedule: Q04DX004 (ip), vehicle: saline with Tween-80
[11] = dose: 50.0 mg/kg/injection, schedule: Q04DX004 (ip), vehicle: saline with Tween-80
[12] = dose: 100.0 mg/kg/injection, schedule: Q04DX004 (ip), vehicle: saline with Tween-80
[13] = dose: 200.0 mg/kg/injection, schedule: Q04DX004 (ip), vehicle: saline with Tween-80
[14] = dose: 200.0 mg/kg/injection, schedule: Q04DX004 (ip), vehicle: Klucel (hydroxypropylcellulose) (HPC)
[15] = dose: 400.0 mg/kg/injection, schedule: Q04DX004 (ip), vehicle: Klucel (hydroxypropylcellulose) (HPC)
[16] = dose: 18.75 mg/kg/injection, schedule: Q04DX004 (ip), vehicle: saline with Tween-80
[17] = dose: 37.5 mg/kg/injection, schedule: Q04DX004 (ip), vehicle: saline with Tween-80
[18] = dose: 400.0 mg/kg/injection, schedule: Q04DX004 (ip), vehicle: saline with Tween-80

Measured: T/C

N=C(N)c1nn(C2OC(CO)C(O)C2O)c2nc[nH]c(=O)c12 (configuration not stated)
inactive: dose: 6.25 mg/kg/injection, schedule: Q04DX004 (ip), vehicle: Klucel + Tween-80 123 % of control | dose: 12.5 mg/kg/injection, schedule: Q04DX004 (ip), vehicle: Klucel + Tween-80 109 % of control | dose: 18.0 mg/kg/injection, schedule: Q04DX004 (ip), vehicle: other 106 % of control | dose: 22.0 mg/kg/injection, schedule: Q04DX004 (ip), vehicle: Klucel + Tween-80 112 % of control | dose: 30.0 mg/kg/injection, schedule: Q04DX004 (ip), vehicle: other 107 % of control | dose: 36.0 mg/kg/injection, schedule: Q04DX004 (ip), vehicle: Klucel + Tween-80 120 % of control | dose: 50.0 mg/kg/injection, schedule: Q04DX004 (ip), vehicle: other 105 % of control | dose: 60.0 mg/kg/injection, schedule: Q04DX004 (ip), vehicle: Klucel + Tween-80 117 % of control | dose: 83.33 mg/kg/injection, schedule: Q04DX004 (ip), vehicle: other 105 % of control | dose: 101.0 mg/kg/injection, schedule: Q04DX004 (ip), vehicle: Klucel + Tween-80 117 % of control

NC(=O)c1c[se]c(C2OC(CO)C(O)C2O)n1 (configuration not stated)
inactive: dose: 25.0 mg/kg/injection, schedule: Q04DX004 (ip), vehicle: water 96 % of control | dose: 50.0 mg/kg/injection, schedule: Q04DX004 (ip), vehicle: water 100 % of control | dose: 100.0 mg/kg/injection, schedule: Q04DX004 (ip), vehicle: water 102 % of control | dose: 200.0 mg/kg/injection, schedule: Q04DX004 (ip), vehicle: water 106 % of control | dose: 400.0 mg/kg/injection, schedule: Q04DX004 (ip), vehicle: water 113 % of control

CS(=O)CCN=Cc1ccc(N=Nc2ccc(O)cc2)cc1 (configuration not stated)
inactive: dose: 37.0 mg/kg/injection, schedule: Q04DX004 (ip), vehicle: saline with Tween-80 109 % of control | [1] 90 % of control | [2] 87 % of control | dose: 600.0 mg/kg/injection, schedule: Q04DX004 (ip), vehicle: saline with Tween-80 87 % of control

CNC(=O)OCc1nc(SC)n(C)c1COC(=O)NC
inactive: [3] 122 % of control | [4] 119 % of control | [5] 119 % of control | [6] 122 % of control
active: [7] 151 % of control | [8] 184 % of control | dose: 200.0 mg/kg/injection, schedule: Q04DX004 (ip), vehicle: suspension in saline 193 % of control

CCCS(=N)(=O)CCC(N)C(=O)O (configuration not stated)
inactive: [5] 103 % of control | [7] 105 % of control | [8] 102 % of control | dose: 400.0 mg/kg/injection, schedule: Q04DX004 (ip), vehicle: saline 102 % of control | dose: 800.0 mg/kg/injection, schedule: Q04DX004 (ip), vehicle: saline 105 % of control

O=C(Nc1cccc(O)c1)C(Cl)=C(Cl)Cl
inactive: dose: 6.25 mg/kg/injection, schedule: Q04DX004 (ip), vehicle: other 96 % of control | dose: 12.5 mg/kg/injection, schedule: Q04DX004 (ip), vehicle: other 95 % of control

CCCCCCCCCCCC1NC(=S)NC(=O)C1C#N (configuration not stated)
inactive: [9] 91 % of control

COC(=O)c1c(C(=O)OC)c2c(C)nn3ccc1n23
inactive: dose: 12.5 mg/kg/injection, schedule: Q04DX004 (ip), vehicle: saline with Tween-80 96 % of control | [10] 97 % of control | [11] 96 % of control | [12] 104 % of control | [13] 93 % of control

CC1(C)C2CCC(C2)C1/C=C1/SC(=S)NC1=O (configuration not stated)
inactive: dose: 25.0 mg/kg/injection, schedule: Q04DX004 (ip), vehicle: Klucel (hydroxypropylcellulose) (HPC) 95 % of control | [9] 98 % of control | dose: 100.0 mg/kg/injection, schedule: Q04DX004 (ip), vehicle: Klucel (hydroxypropylcellulose) (HPC) 90 % of control | [14] 91 % of control | [15] 87 % of control

CCOC(=O)c1cc(-c2ccccc2)c(=O)c(OC)nc1-c1ccccc1
inactive: [16] 87 % of control | [17] 95 % of control | [1] 93 % of control | [2] 90 % of control

C=CCNC(=O)c1ccccc1SC(C)=O
inactive: [11] 103 % of control | [12] 96 % of control | [13] 90 % of control | [18] 103 % of control

COC(COC(=O)N1CCN(C=O)CC1)C1=C(N2CC2)C(=O)C(C)=C(N2CC2)C1=O (configuration not stated)
inactive: dose: 1.5 mg/kg/injection, schedule: Q04DX004 (ip), vehicle: saline 124 % of control
active: dose: 3.0 mg/kg/injection, schedule: Q04DX004 (ip), vehicle: saline 152 % of control | dose: 3.6 mg/kg/injection, schedule: Q04DX004 (ip), vehicle: saline 150 % of control | dose: 6.0 mg/kg/injection, schedule: Q04DX004 (ip), vehicle: saline 176 % of control and 190 % of control | dose: 10.0 mg/kg/injection, schedule: Q04DX004 (ip), vehicle: saline 245 % of control | dose: 12.0 mg/kg/injection, schedule: Q04DX004 (ip), vehicle: saline 151 % of control

Cc1ncc(CO)c(CO)c1OCC(O)CN1CCN(C(=O)c2ccccc2)CC1 (configuration not stated)
inactive: [3] 103 % of control | [5] 103 % of control | [7] 99 % of control

Cc1cc2cc3cc(C)c(N)cc3nc2cc1N
inactive: [10] 110 % of control | [11] 117 % of control | [12] 113 % of control

O=P1(N(CCCl)CCCl)NCCCO1 (configuration not stated)
active: dose: 80.0 mg/kg/injection, schedule: Q04DX003 (ip), vehicle: saline 201 % of control | dose: 160.0 mg/kg/injection, schedule: Q04DX003 (ip), vehicle: saline 261 % of control

Cc1nnc2c3nccnc3c(Cl)nn12
inactive: dose: 15.0 mg/kg/injection, schedule: Q04DX004 (ip), vehicle: saline with Tween-80 102 % of control | dose: 30.0 mg/kg/injection, schedule: Q04DX004 (ip), vehicle: saline with Tween-80 98 % of control | dose: 60.0 mg/kg/injection, schedule: Q04DX004 (ip), vehicle: saline with Tween-80 101 % of control | dose: 120.0 mg/kg/injection, schedule: Q04DX004 (ip), vehicle: saline with Tween-80 108 % of control

COC1=CCC23C(=O)C=CC(=O)C2(C1)C(=O)c1ccccc1C3=O (configuration not stated)
inactive: dose: 1.5 mg/kg/injection, schedule: Q04DX004 (ip), vehicle: saline with Tween-80 110 % of control | dose: 3.0 mg/kg/injection, schedule: Q04DX004 (ip), vehicle: saline with Tween-80 95 % of control | dose: 6.0 mg/kg/injection, schedule: Q04DX004 (ip), vehicle: saline with Tween-80 94 % of control | dose: 12.0 mg/kg/injection, schedule: Q04DX004 (ip), vehicle: saline with Tween-80 98 % of control | dose: 24.0 mg/kg/injection, schedule: Q04DX004 (ip), vehicle: saline with Tween-80 108 % of control

CC1=CC(=NN=c2cc(C)n([O-])c(C)c2)C=C(C)[N+]1=O
inactive: [12] 122 % of control | [13] 121 % of control | [18] 98 % of control

Oc1ccc(/C=N/Nc2nnc(N/N=C/c3ccc(O)cc3O)c3ccccc23)c(O)c1
inactive: dose: 6.25 mg/kg/injection, schedule: Q04DX004 (ip), vehicle: suspension in saline 108 % of control | dose: 12.5 mg/kg/injection, schedule: Q04DX004 (ip), vehicle: suspension in saline 109 % of control | [4] 109 % of control | [6] 109 % of control | dose: 100.0 mg/kg/injection, schedule: Q04DX004 (ip), vehicle: suspension in saline 119 % of control

Cc1ccc(-n2c(CSc3ccc(Cl)cc3)nnc2SCc2nc3ccccc3[nH]2)cc1
inactive: [16] 95 % of control | [17] 104 % of control | [1] 100 % of control | [2] 95 % of control

CN(C)CCNc1ccc(CO)c2sc3ccc(O)cc3c(=O)c12
inactive: [12] 119 % of control
active: [11] 155 % of control | [18] 158 % of control

Cc1ccc2c(c1)C1(SC(C)C(=O)N1c1ccc(Cl)cc1)C(=O)N2 (configuration not stated)
inactive: [11] 96 % of control | [12] 101 % of control | [13] 98 % of control | [18] 93 % of control | dose: 800.0 mg/kg/injection, schedule: Q04DX004 (ip), vehicle: saline with Tween-80 86 % of control

O=C1CC2(C(=O)N1CN1CCOCC1)c1ccccc1-c1ccccc12
inactive: [14] 113 % of control | [15] 121 % of control
